Measurements published in patent publication US10526322B2, “Inhibitors of kidney-type glutaminase, GLS-1” (CORNELL UNIVERSITY, priority 2014, dated 2020).
Where a chain is given by its changes, count along the chain named.

Legend:
[1] = biological target: T1, K316E/D391K/R459E GAC mutant (Mus musculus, UniProt D3Z7P3, D391K/K316E/R459E); assay: In vitro photo cross linking of SU-22 and purification of the conjugate; format: binding
T1 construct: (residues 72-603) was cloned into a pET23a vector; made in house
T1 sequence (D3Z7P3 72-603 isoform D3Z7P3-2 K316E/D391K/R459E): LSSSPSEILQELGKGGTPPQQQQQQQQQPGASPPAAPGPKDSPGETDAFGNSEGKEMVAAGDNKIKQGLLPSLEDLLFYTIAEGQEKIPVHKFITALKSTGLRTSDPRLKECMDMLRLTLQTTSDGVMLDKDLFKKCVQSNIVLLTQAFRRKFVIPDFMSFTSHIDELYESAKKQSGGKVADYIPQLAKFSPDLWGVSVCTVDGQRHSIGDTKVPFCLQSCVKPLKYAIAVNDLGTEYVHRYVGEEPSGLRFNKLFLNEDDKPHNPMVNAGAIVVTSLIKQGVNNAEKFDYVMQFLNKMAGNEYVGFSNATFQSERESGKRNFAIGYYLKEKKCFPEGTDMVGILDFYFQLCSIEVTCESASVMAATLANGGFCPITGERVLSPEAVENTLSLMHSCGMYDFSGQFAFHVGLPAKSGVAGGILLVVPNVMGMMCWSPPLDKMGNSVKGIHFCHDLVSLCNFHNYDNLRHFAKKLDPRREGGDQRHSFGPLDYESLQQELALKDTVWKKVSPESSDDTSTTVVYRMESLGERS
Method: Glutaminase proteins of the WT sequence, or containing the mutations D391K alone, or the mutations K316E/D391K/R459E, were purified as detailed in Example 3 supra. These glutaminase proteins were incubated with increasing concentrations of the compound SU-22, and excited with a hand held UV lamp for 120 seconds. Immediately following UV exposure, samples were loaded onto a 4-20% Tris-Glycine polyacrylamide gel after the addition of SDS-PAGE sample buffer (50 mM Tris-HCl (pH=6.8), 2% SDS, 10% glycerol, 1% β-mercaptoethanol, 12.5 mM EDTA, 0.02% bromophenol blue), and visualized on a UV light box.
Conditions of in vitro cross linking of WT GAC, and the K316E/D391K/R459E GAC mutant were adapted for efficient cross linking and purification of the cross linked protein product. WT GAC and the K316E/D391K/R459E GAC mutant, both containing the N-terminal His-tag, were diluted to a concentration of 100 nM in 20 mM Tris-HCl (pH=8.6) 100 mM NaCl, upon which 10 μM of SU-22 was added. […] The purified cross linked protein was then concentrated using spin columns with a 30 kD molecular weight cutoff and quantified using UV-vis spectroscopy, where the protein was quantified using the A280 (ε280=38,850 M−1 cm−1) and the cross-linked SU-22 using the A350 (ε350=18,900 M−1 cm−1). […]

488-GAC and QSY9-GAC = biological target: T2, 488-GAC and QSY9-GAC (Mus musculus, UniProt D3Z7P3); assay: FRET assay for GAC tetramer formation; format: binding; conditions: 25 nM 488-GAC and 25 nM QSY9-GAC
T2 construct: (residues 72-603) was cloned into a pET23a vector; His-tag with thrombin cleavage site (N, cleaved yes); made in house
T2 sequence (D3Z7P3 72-603 isoform D3Z7P3-2): T1 sequence (D3Z7P3 72-603 isoform D3Z7P3-2 K316E/D391K/R459E) with E245K, K320D, E388R
Method: Fluorescence experiments were performed using a Varian Cary Eclipse Fluorometer in the counting mode. Excitation and emission wavelengths were 490 and 520 nm, respectively. Experiments were all performed using 1-mL samples with continuous stirring at 20° C. in 50 mM Tris-Acetate, pH 8.5, 0.1 mM ethylenediamine tetraacetic acid (EDTA). For wild-type (WT) GAC titrations in the absence of inorganic phosphate, 25 nM 488-GAC was equilibrated with 25 μL of QSY9-GAC (at varying concentrations) and allowed to equilibrate for 10 minutes, at which point 75 μL of the appropriate concentration of unlabeled WT GAC was added to provide a 10-fold excess over labeled-GAC. To test whether the purified GAC mutants can form oligomers with WT GAC, 200 nM QSY9-GAC (D391K) or 200 nM QSY9-GAC (D391K, K316E, R459E) was added to an equilibrated sample of 20 nM 488-WT GAC. When assaying the effects of BPTES and 968 on oligomer formation, BPTES or 968 was added following equilibration of a sample of 25 nM QSY9-WT GAC and 25 nM 488-WT GAC. Both BPTES and 968 were prepared in DMSO, and appropriate dilutions were made so that less than 2% (v/v) DMSO was added to an experimental sample.

ratio of cross linked SU-22 to protein ([1]; 100 nM K316E/D391K/R459E GAC, 10 μM SU-22, UV, A350/A280)	efficiency of cross linking compared with dimer (D391K) or WT GAC ([1]; UV exposure, SDS-PAGE)	SMILES	effect on GAC tetramer formation (488-GAC emission in mixture with QSY9-GAC) (488-GAC and QSY9-GAC)
0.78	more efficient	CC1(C)CC(=O)C2=C(C1)c1c(ccc3cc4ccccc4cc13)NC2c1ccc(N=[N+]=[N-])cc1 (stereo not drawn) [SU-22]	–
–	–	CN(C)c1ccc(C2Nc3ccc4ccccc4c3C3=C2C(=O)CC(C)(C)C3)cc1Br (stereo not drawn) [Compound 968]	does not appear to interfere with GAC tetramer formation
